Source: US20260102457A1, “ANTICOAGULANT-PEPTIDE NANOGRANULES FOR THROMBOSIS-ACTUATED ANTICOAGULATION” (The Penn State Research Foundation, priority 2022, published 2026)
Where no end group is shown, it is not given here.

Tests used:
activated platelets = assay: Platelet localization and binding (confocal microscopy, flow cytometry); type: cell-based, bovine; details: 15 minutes incubation
Procedure: Bovine platelets were acquired from bovine PRP by centrifugation (800 rcf, 15 minutes), labelled with DiI (5 μg/mL), washed, and resuspended in PBS. At the time of treatment, platelets were further centrifuged (800 rcf, 15 minutes) to replace PBS supernatant with treatment solutions. Treatments of AMCA/FITC HMG, FITC-MAD1, or AMCA-heparin were prepared in PBS at equivalent concentrations, incubated with platelet samples for 15 minutes and then transferred to 4-well chambered slide (500 μL) before imaging using an Olympus FluoView 1000 confocal microscope (Tokyo, Japan).
MAD1-platelet binding was analyzed via flow cytometry by resuspending platelets in PBS containing 1 mg/mL FITC-MAD1. Blank PBS was used as an untreated control. After a 15-minute incubation, treated platelets were centrifuged (800 rcf, 15 minutes) and resuspended in PBS before analysis using a Guava Flow Cytometer (Millipore Sigma; Burlington, MA). Data was analyzed by FlowJo software.

[1] = tested on: bovine platelet rich plasma (PRP); details: equivalent heparin concentration of 2 μg/mL, FIG. 3b
Procedure: Here, bovine PRP was acquired from the top clear layer after centrifuging citrated bovine whole blood at 600 rcf for 30 minutes (4° C.) with minimum acceleration/break ramps. […] Clot formation was initiated by combining 450 μL bovine PRP, 50 μL HMG treatment solution, and 50 μL 0.1M CaCl2) in a 24-well plate. DI water was included as a negative control. Samples were mixed on an oscillating rocker plate and clotting time determined as the time required for observable aggregate formation upon recalcification.

[2] = In vivo heparin serum/plasma concentration over time; design: species or system C57BL/6J mice; details: for time of highest heparin serum concentration: first sampling timepoint; for time to complete clearance from serum: post administration; for heparin serum half-life (t1/2): single dose 10 IU heparin
Procedure: (§1) Murine studies were performed under IACUC protocol 202102036. HMG particles were prepared using rhodamine-heparin doped 20 vol % into unlabeled heparin before electrospray synthesis. Dialyzed HMG particles were concentrated by Centri Vap DNA Concentrator to achieve 0.5 mg/mL equivalent heparin. Sterile 10×PBS was diluted ten-fold into samples before injection of a 200 μL volume into C57BL/6J mice. Two groups (n=4) received free heparin given via tail vein injection or injected subcutaneously in the neck scruff. A third group (n=4) received HMG sample as a subcutaneous depot in the neck scruff. All mice received a final heparin dose of 10 IU. At each time point, mice were sacrificed, and blood samples collected into citrate tubes via cardiac puncture. Coagulation time was determined on whole blood samples via INTEM analysis on a ROTEM delta coagulation analyzer (Werfen; Bedford, MA). Clotting times were chosen to evaluate the efficacy of each treatment's ability to inhibit thrombin-linked platelet activation and initial fibrin polymerization/recruitment. INTEM coagulation analysis was selected based on its established sensitivity for the presence of heparin. For a typical experiment, serum is isolated via centrifugation (1000 rcf, 10 minutes) and fluorescence measurements taken (λex=560 nm, λem=590 nm). Kidney, liver, and spleen tissues were also collected and homogenized before centrifugation at 10,000 rcf for 20 minutes to remove bulk fibrous structures. 100 μL of the remaining supernatant was evaluated for heparin presence via fluorescence measurements (λex=560 nm, λem=590 nm) using a BioTek Cytation 3 Plate Reader.

whole blood coagulation = assay: In vivo anticoagulation: blood clotting time (INTEM, ROTEM); design: species or system C57BL/6J mice
Procedure: as §1

[3] = Tissue biodistribution of heparin (liver, kidney, spleen fluorescence); type: in vivo, C57BL/6J mice; details: kidneys
Procedure: as §1, with “INTEM coagulation analysis was selected based on its established sensitivity for the presence of heparin.” left out, “Kidney, liver, and spleen tissues were also collected and homogenized before centrifugation at 10,000 rcf for 20 minutes to remove bulk fibrous structures.” left out

[4] = clinical background; cited from earlier work

| time of highest heparin serum concentration ([2]; intravenous) [min] | time to complete clearance from serum ([2]; intravenous) [h] | heparin serum half-life (t1/2) ([2]; intravenous) [h] | time of transient spike in heparin serum concentration after dosing ([2]; subcutaneous) [h] | time of highest heparin serum concentration ([2]; subcutaneous) [min] | time to complete clearance from serum ([2]; subcutaneous) [h] | heparin serum half-life (t1/2) ([2]; subcutaneous) [h] | Substance | binding to activated platelets (activated platelets) | clotting time of blood treated with peptide alone [1] | blood clotting time (whole blood coagulation; intravenous, 0.5 hour time point) [min] | time to return to basal clotting activity (whole blood coagulation; intravenous, post administration, basal 3.5 minutes) | change in clotting behavior (whole blood coagulation; subcutaneous, 0.5-24 hours) | tissue biodistribution / clearance route of heparin ([3]; intravenous) | tissue biodistribution / clearance route of heparin ([3]; subcutaneous) | plasma half-life (t1/2) [4] [h] |
| --- | --- | --- | --- | --- | --- | --- | --- | --- | --- | --- | --- | --- | --- | --- | --- |
| – | – | – | – | – | – | – | KRWHWWRRHWVVW-NH2 [MAD1] | high avidity | significant increase in clotting time | – | – | – | – | – | – |
| 30 | ~6 | 1.3 | 4 to 6 | 30 | ~6 | 1.4 | heparin | – | – | 35.5 | approximately 2 hours | negligible changes in clotting behavior for all time points except 6 hours | initially excreted through the renal system, with additional hepatic clearance observed at ˜6 hours | early liver uptake that later shifted to renal clearance | ~1 |
